Results reported in patent US20180099931A1 (AbbVie S.à.r.l., priority 2016, published 2018).
Where two headings read alike, the source gives them in different places.

Target: T1, F508delCFTR (Homo sapiens, UniProt P13569, DEL508-508)
T1 construct: expressed in transfected cells; host or cells: CFBE41o- human lung-derived epithelial cells (CFBE4lo-F508delCFTR-HRP), doxycycline-inducible
Assay: Cell Surface Expression-Horse Radish Peroxidase (CSE-HRP) Assay;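 as to Maximum % activity (with co-corrector): co-corrector and positive control are both the same reference corrector at 2 µM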;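 as to Maximum % activity (without co-corrector): percent of the 2 µM on-plate positive control corrector response above DMSO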
Type: cell-based
Conditions: for Maximum % activity (with co-corrector) / Emax: maximum at any tested concentration, normalized to on-plate positive control; for Emax: read-out: Maximum % activity (without co-corrector)
Experimental: Cell Surface Expression-Horse Radish Peroxidase (CSE-HRP) Assay;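 as to Maximum % activity (with co-corrector): co-corrector and positive control are both the same reference corrector at 2 µM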;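 as to Maximum % activity (without co-corrector): percent of the 2 µM on-plate positive control corrector response above DMSO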
The development was achieved by expressing the F508delCFTR mutation along with a horseradish peroxidase (HRP) in the fourth exofacial loop, and then measuring the HRP activity using luminescence readout from these cells, CFBE4lo-F508delCFTR-HRP, that were incubated overnight with the test corrector compounds, either without or with the co-corrector. […] The test compounds were then added either without or with a co-corrector at the required concentrations and further incubated for 18-24 hours at 33° C. The highest concentration tested was 20 μM with an 8-point concentration response curve using a 3-fold dilution in both the test compound without or with the co-corrector. Three replicate plates were run to determine one EC50. All plates contained negative controls (dimethyl sulfoxide, DMSO) and positive control (2 μM of 3-[(2R,4R)-4-({[1-(2,2-difluoro-1,3-benzodioxol-5-yl)cyclopropyl]carbonyl}amino)-7-methoxy-3,4-dihydro-2H-chromen-2-yl]benzoic acid) as well as on-plate concentration response of the positive control. […] The raw counts from the experiment were analyzed using Accelrys® Assay Explorer v3.3.
1−[3*SDPositive Control+3*SDNegative Control/Absolute(MeanPositive Control−MeanNegative Control)]
wherein “SD” is standard deviation.
The % activity measured at each of the 8 test concentrations of the test compound added either without or with a co-corrector (2 μM of 3-[(2R,4R)-4-({[1-(2,2-difluoro-1,3-benzodioxol-5-yl)cyclopropyl]carbonyl}amino)-7-methoxy-3,4-dihydro-2H-chromen-2-yl]benzoic acid) was normalized to the on-plate positive control using the following formulae:
% activity(Test compound without co-corrector)=[(test compound without co-corrector response−DMSO response)/(positive control response−DMSO response)]*100
% activity(Test compound with co-corrector)=[(test compound with co-corrector response−DMSO response)/(positive control response−DMSO response)]*100
The maximum % activity achieved for the test compound either without or with a co-corrector at any tested concentration is presented in Table 4 along with the respective EC50's calculated using the following general sigmoidal curve with variable Hill slope equation (described as Model 42 in the Accelrys® Assay Explorer v3.3 software):
General sigmoidal curve with concentration, response, top, bottom, EC50 and Hill slope. This model describes a sigmoidal curve with an adjustable baseline, a. The equation can be used to fit curves where response is either increasing or decreasing with respect to the independent variable, “x”.
“x” is a concentration of drug under test. “y” is the response. “a” is the maximum response, and “d” is the minimum response “c” is the inflection point (EC50) for the curve. That is, “y” is halfway between the lower and upper asymptotes when x=c. “b” is the slope-factor or Hill coefficient. The sign of b is positive when the response increases with increasing dose and is negative when the response decreases with increasing dose (inhibition).

[1] = CSE-HRP, test compound without co-corrector, read-out: EC50 (without co-corrector)
[2] = CSE-HRP, with co-corrector (2 μM of 3-[(2R,4R)-4-({[1-(2,2-difluoro-1,3-benzodioxol-5-yl)cyclopropyl]carbonyl}amino)-7-methoxy-3,4-dihydro-2H-chromen-2-yl]benzoic acid), read-out: EC50 (with co-corrector)
[3] = CSE-HRP, with co-corrector (2 μM)
[4] = test compound without co-corrector
[5] = test compound without co-corrector, read-out: EC50 (without co-corrector)
[6] = with co-corrector (2 μM of 3-[(2R,4R)-4-({[1-(2,2-difluoro-1,3-benzodioxol-5-yl)cyclopropyl]carbonyl}amino)-7-methoxy-3,4-dihydro-2H-chromen-2-yl]benzoic acid)
[7] = with co-corrector (2 μM of 3-[(2R,4R)-4-({[1-(2,2-difluoro-1,3-benzodioxol-5-yl)cyclopropyl]carbonyl}amino)-7-methoxy-3,4-dihydro-2H-chromen-2-yl]benzoic acid), read-out: EC50 (with co-corrector)

T1 sequence (P13569 with tags, fused parts or gaps DEL508-508): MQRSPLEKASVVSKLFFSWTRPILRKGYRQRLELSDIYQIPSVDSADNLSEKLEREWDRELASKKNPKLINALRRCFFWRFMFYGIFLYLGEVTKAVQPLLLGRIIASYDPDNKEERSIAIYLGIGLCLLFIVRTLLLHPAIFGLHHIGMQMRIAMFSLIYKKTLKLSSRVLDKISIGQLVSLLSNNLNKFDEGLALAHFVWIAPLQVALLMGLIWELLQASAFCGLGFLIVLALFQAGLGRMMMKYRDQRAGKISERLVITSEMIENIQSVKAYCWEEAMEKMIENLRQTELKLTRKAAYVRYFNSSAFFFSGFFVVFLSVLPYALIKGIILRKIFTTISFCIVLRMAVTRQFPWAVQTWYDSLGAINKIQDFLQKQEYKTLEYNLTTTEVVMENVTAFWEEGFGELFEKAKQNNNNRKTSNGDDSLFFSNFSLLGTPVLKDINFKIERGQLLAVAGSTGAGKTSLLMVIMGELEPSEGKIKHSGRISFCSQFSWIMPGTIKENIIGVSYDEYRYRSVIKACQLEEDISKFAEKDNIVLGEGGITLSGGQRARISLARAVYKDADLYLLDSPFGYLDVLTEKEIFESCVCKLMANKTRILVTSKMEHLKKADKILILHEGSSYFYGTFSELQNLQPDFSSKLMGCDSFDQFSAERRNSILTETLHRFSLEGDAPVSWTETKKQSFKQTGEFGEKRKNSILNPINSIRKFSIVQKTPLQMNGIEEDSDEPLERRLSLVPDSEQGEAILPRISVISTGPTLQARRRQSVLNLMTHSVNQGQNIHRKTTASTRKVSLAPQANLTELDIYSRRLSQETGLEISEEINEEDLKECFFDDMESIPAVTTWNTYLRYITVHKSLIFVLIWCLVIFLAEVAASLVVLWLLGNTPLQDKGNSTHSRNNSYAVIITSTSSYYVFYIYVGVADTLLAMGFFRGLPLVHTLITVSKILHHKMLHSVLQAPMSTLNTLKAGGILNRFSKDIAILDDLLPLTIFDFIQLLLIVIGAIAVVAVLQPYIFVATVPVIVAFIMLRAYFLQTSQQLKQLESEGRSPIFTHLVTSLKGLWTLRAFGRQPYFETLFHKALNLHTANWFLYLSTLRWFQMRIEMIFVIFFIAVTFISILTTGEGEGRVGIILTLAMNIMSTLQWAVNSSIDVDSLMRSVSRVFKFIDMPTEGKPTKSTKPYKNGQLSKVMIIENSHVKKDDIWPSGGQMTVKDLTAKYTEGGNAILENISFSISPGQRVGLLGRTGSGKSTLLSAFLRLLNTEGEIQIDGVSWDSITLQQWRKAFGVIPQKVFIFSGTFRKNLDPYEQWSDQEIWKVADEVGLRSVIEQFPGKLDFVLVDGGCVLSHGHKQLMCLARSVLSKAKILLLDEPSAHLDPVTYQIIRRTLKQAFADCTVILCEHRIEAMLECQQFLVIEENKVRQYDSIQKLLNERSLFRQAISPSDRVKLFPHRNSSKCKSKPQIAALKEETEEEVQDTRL

| SMILES | EC50 [1] [nM] | EC50 [2] [nM] | Maximum % activity (with co-corrector) [3] | Emax (CSE-HRP, without co-corrector) [%] | Emax [4] [%] | EC50 [5] [nM] | Maximum % activity (with co-corrector) [6] | EC50 [7] [nM] | Maximum % activity (with co-corrector) (with co-corrector (2 μM)) | Emax (without co-corrector) [%] |
| --- | --- | --- | --- | --- | --- | --- | --- | --- | --- | --- |
| COc1cc(C(F)(F)F)ccc1CN[C@H]1[C@H](C(C)(C)C)[C@@H](C(=O)O)N(C(=O)[C@H](OC)c2ccccc2)[C@H]1c1cccnc1N(C)C (racemic) [II-48] | 1000 to 10000 | 1000 to 10000 | +++ (≥350) | 100 to 200 |  |  |  |  |  |  |
| COc1ccc(C(C)(C)C)cc1CN[C@H]1[C@H](C(C)(C)C)[C@@H](C(=O)O)N(C(=O)Cc2ccc(F)cc2F)[C@H]1c1ccccc1 [III-173] |  |  |  |  | > 200 | 1000 to 10000 |  | < 1000 | +++ (≥350) |  |
| COC(=O)N1CCC[C@@H](C(=O)N2[C@H](c3ccccc3)[C@H](Nc3cc(C(F)(F)F)cc(C)n3)[C@@H](C(C)(C)C)[C@@H]2C(=O)O)C1 (racemic) [Example I-27] |  |  |  |  |  | 1000 to 10000 |  | 1000 to 10000 | +++ (≥350) | > 200 |
| COc1ccc(C(C)(C)C)cc1CN[C@H]1[C@H](C(C)(C)C)[C@@H](C(=O)O)N(C(=O)CC23CC(C2)C3)[C@H]1c1ccccc1 [II-177] | 1000 to 10000 | < 1000 | +++ (≥350) | > 200 |  |  |  |  |  |  |
| COc1ccc(C(C)(C)C)cc1CN[C@H]1[C@H](C23CC(C2)C3)[C@@H](C(=O)O)N(C(=O)OC(C)C)[C@H]1c1ccccc1 [Example I-226] |  |  |  |  |  | 1000 to 10000 |  | 1000 to 10000 | +++ (≥350) | > 200 |
| COc1ccc(C(C)(C)C)cc1CN[C@H]1[C@H](C(C)(C)C)[C@@H](C(=O)O)N(C(=O)N(C(C)C)C(C)C)[C@H]1c1ccccc1 [III-217] |  |  |  |  | < 100 | > 10000 |  | 1000 to 10000 | + (<150) |  |
| COc1ccc(C(C)(C)C)cc1CN[C@H]1[C@H](C(C)(C)C)[C@@H](C(=O)O)N(C(=O)Cc2cccc(F)c2)[C@H]1c1ccccc1 [II-199] | 1000 to 10000 | 1000 to 10000 | +++ (≥350) | > 200 |  |  |  |  |  |  |

The remaining lines, values ahead:

| EC50 [1] [nM] | EC50 [2] [nM] | Maximum % activity (with co-corrector) [3] | Emax (CSE-HRP, without co-corrector) [%] | Emax [4] [%] | EC50 [5] [nM] | Maximum % activity (with co-corrector) [6] | EC50 [7] [nM] | Maximum % activity (with co-corrector) (with co-corrector (2 μM)) | Emax (without co-corrector) [%] | SMILES |
| --- | --- | --- | --- | --- | --- | --- | --- | --- | --- | --- |
|  |  |  |  | 100 to 200 | 1000 to 10000 | +++ (≥350) | 1000 to 10000 |  |  | COc1ncc(C2CCC2)cc1CN[C@H]1[C@H](C(C)(C)C)[C@@H](C(=O)O)N(C(=O)C2CCc3cc(F)ccc3O2)[C@H]1c1ccccc1 (some centres unmarked) [II-476] |
| 1000 to 10000 | 1000 to 10000 | ++ (≥150 and <350) | < 100 |  |  |  |  |  |  | COCc1cc(C)nc(N[C@H]2[C@H](C(C)(C)C)[C@@H](C(=O)O)N(C(=O)C3CCCCC3)[C@H]2c2ccccc2)c1C#N [II-147] |
|  |  |  |  |  | < 1000 |  | < 1000 | +++ (≥350) | > 200 | COc1ccc(C(C)(C)C)cc1CN[C@H]1[C@H](C(C)(C)C)[C@@H](C(=O)O)N(C(=O)C2CCCCC2)[C@H]1c1ccc(F)cc1 [Example I-112] |
|  |  |  |  | 100 to 200 | 1000 to 10000 | +++ (≥350) | < 1000 |  |  | COc1ncc(-c2ccc(F)cc2F)cc1CN[C@H]1[C@H](C(C)(C)C)[C@@H](C(=O)O)N(C(=O)C2CCCCC2)[C@H]1c1ccccc1 [II-344] |
| 1000 to 10000 | 1000 to 10000 | +++ (≥350) | 100 to 200 |  |  |  |  |  |  | COc1cc(F)c(F)cc1CN[C@H]1[C@H](C(C)(C)C)[C@@H](C(=O)O)N(C(=O)C2CCCCC2)[C@H]1c1ccccc1 [II-128] |
|  |  |  |  | 100 to 200 | 1000 to 10000 | +++ (≥350) | 1000 to 10000 |  |  | COc1ncc(C2(C)CC2)cc1CN[C@H]1[C@H](C(C)(C)C)[C@@H](C(=O)O)N(C(=O)C2CCCCC2)[C@H]1c1ccccc1 [II-440] |
|  |  |  |  | 100 to 200 | 1000 to 10000 | +++ (≥350) | 1000 to 10000 |  |  | COc1ccc(C2CCOCC2)cc1CN[C@H]1[C@H](C(C)(C)C)[C@@H](C(=O)O)N(C(=O)C2CCCCC2)[C@H]1c1ccccc1 [II-340] |
